Results published in patent US10072001B2, “Tank-binding kinase inhibitor compounds” (Gilead Sciences, Inc., priority 2014, dated 2018).

Assays:
TBK1 = TBK1 (Homo sapiens (Human), UniProt Q9UHD2); assay: TR-FRET kinase assay, TBK1; settings: read-out: TBK1-IC50; full length recombinant TBK1 2.5 nM, 2x Km ATP, 1 μM peptide, 240 min at 25° C.; geometric mean of minimum four determinations
Sequence of TBK1 (Q9UHD2 whole entry): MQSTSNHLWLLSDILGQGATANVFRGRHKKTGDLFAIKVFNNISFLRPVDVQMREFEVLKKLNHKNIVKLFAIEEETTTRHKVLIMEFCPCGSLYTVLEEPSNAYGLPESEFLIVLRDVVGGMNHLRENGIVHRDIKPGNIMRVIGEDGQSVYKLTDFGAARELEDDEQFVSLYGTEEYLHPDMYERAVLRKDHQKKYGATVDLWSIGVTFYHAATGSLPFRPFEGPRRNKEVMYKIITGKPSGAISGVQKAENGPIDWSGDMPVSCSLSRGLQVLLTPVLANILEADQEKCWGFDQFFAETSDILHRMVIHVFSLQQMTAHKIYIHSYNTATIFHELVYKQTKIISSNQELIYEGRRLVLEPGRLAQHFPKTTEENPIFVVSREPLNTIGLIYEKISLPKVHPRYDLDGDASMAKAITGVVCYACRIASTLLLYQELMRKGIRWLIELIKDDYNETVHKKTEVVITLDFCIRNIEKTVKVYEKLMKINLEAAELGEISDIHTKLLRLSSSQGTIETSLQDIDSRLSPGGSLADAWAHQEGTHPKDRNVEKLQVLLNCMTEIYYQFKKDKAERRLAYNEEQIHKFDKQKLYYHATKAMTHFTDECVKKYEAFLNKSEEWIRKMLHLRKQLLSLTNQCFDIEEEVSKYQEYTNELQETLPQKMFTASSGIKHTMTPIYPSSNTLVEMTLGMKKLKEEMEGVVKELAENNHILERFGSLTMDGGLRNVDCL
Description: Enzymatic activity of IKKε and TBK1 was measured using a homogeneous time resolved fluorescence resonance energy transfer (TR-FRET) assay that monitors enzyme dependent phosphorylation of a biotinylated serine/threonine peptide substrate. […] TBK1 and IKKs were expressed and purified as full length recombinant proteins. Detection reagents for the assay were purchased from Cisbio. […] After an assay reaction time of 240 minutes at 25° C., reactions were terminated with EDTA.
Amount of phosphorylated peptide was determined by the addition of 125 nM streptavidin XL665 and europium cryptate labeled anti-phospho monoclonal antibody and the resulting TR-FRET signal was recorded on an Envision plate reader (Ex: 340 nm; Em: 615/665 nm; 100 μs delay and 200 μs read window). […] All IC50 values represent geometric mean values of a minimum of four determinations.

IKKε = IKKε (Homo sapiens (Human), UniProt Q14164); assay: TR-FRET kinase assay, IKKε; assay type: biochemical; settings: full length recombinant IKKε 0.3 nM, 2x Km ATP, 1 μM peptide, 240 min at 25° C.; geometric mean of minimum four determinations
Sequence of IKKε (Q14164 whole entry): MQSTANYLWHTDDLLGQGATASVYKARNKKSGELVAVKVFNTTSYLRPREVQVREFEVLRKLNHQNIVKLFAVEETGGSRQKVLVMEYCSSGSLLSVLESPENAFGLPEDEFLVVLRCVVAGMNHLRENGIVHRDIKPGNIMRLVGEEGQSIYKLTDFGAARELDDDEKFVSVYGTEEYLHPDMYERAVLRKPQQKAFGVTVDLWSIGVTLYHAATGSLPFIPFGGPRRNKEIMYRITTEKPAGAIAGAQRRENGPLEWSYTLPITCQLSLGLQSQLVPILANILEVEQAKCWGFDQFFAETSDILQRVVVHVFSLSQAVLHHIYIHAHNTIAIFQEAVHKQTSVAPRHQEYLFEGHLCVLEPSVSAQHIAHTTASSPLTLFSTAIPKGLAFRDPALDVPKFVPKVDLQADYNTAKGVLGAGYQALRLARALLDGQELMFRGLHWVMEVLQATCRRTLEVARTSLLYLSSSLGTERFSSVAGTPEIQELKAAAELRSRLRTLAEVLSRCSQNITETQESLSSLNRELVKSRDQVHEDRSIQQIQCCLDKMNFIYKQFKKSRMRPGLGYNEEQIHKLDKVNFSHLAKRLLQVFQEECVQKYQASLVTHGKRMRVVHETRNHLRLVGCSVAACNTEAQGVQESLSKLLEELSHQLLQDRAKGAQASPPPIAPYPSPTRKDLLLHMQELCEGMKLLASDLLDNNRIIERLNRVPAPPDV
Excerpt: Biological Assay for TBK1 and IKKs:

N#Cc1cc(-c2ncnc3[nH]c(-c4ccc(N5CCOCC5)cc4)cc23)ccc1OCC1CC1 [Example 102, 2-(cyclopropylmethoxy)-5-(6-(4-morpholinophenyl)-7H-pyrrolo[2,3-d]pyrimidin-4-yl)benzonitrile] was tested, and the IC50 (TBK1) was greater than 1000 nM and the IC50 (IKKε) was greater than 1000 nM.

COc1cc(-c2cc3c(-c4ccc(OC5CCNCC5(F)F)c(C#N)c4)ncnc3[nH]2)ccc1N1CCN(C2COC2)CC1 (stereo not shown) [Example 140, 2-((3,3-difluoropiperidin-4-yl)oxy)-5-(6-(3-methoxy-4-(4-(oxetan-3-yl)piperazin-1-yl)phenyl)-7H-pyrrolo[2,3-d]pyrimidin-4-yl)benzonitrile] gave an IC50 (TBK1) of 3.55 nM and an IC50 (IKKε) of 32.9 nM.

N#Cc1cc(-c2ncnc3[nH]c(-c4ccc(OCCN5CCCC5)cc4)cc23)ccc1N1CC(O)C1 [Example 227, 2-(3-hydroxyazetidin-1-yl)-5-(6-(4-(2-(pyrrolidin-1-yl)ethoxy)phenyl)-7H-pyrrolo[2,3-d]pyrimidin-4-yl)benzonitrile] showed an IC50 (TBK1) of 42.4 nM and an IC50 (IKKε) of 70.2 nM.

In the case of CC(C)NC(=O)c1cc2c(-c3ccc(OC4CCOCC4)c(C#N)c3)ccnc2[nH]1 [Example 60, 4-(3-cyano-4-((tetrahydro-2H-pyran-4-yl)oxy)phenyl)-N-isopropyl-1H-pyrrolo[2,3-b]pyridine-2-carboxamide], the IC50 (TBK1) is reported as 63.8 nM and the IC50 (IKKε) is reported as 44.5 nM.

COc1cc(-c2cc3c(-c4ccc(OC5CCOCC5)c(C#N)c4)ncnc3[nH]2)ccc1N1CCN(C2COC2)CC1 [Example 143, 5-(6-(3-methoxy-4-(4-(oxetan-3-yl)piperazin-1-yl)phenyl)-7H-pyrrolo[2,3-d]pyrimidin-4-yl)-2-((tetrahydro-2H-pyran-4-yl)oxy)benzonitrile] gave an IC50 (TBK1) of 1.02 nM and an IC50 (IKKε) of 6.9 nM.

Molecule CN1CCN(C(=O)c2cc3c(-c4ccc(OC5CCOCC5)c(C#N)c4)ccnc3[nH]2)CC1 [Example 118, 5-(2-(4-methylpiperazine-1-carbonyl)-1H-pyrrolo[2,3-b]pyridin-4-yl)-2-((tetrahydro-2H-pyran-4-yl)oxy)benzonitrile] has an IC50 (TBK1) of 1000 nM and an IC50 (IKKε) of 291 nM.

Work on N#Cc1cc(-c2ccnc3[nH]c(-c4ccccc4)cc23)ccc1OC1CCOCC1 [Example 83, 5-(2-phenyl-1H-pyrrolo[2,3-b]pyridin-4-yl)-2-((tetrahydro-2H-pyran-4-yl)oxy)benzonitrile] yielded an IC50 (TBK1) greater than 1000 nM and an IC50 (IKKε) of 19.8 nM.

CC(=O)Nc1ccc(-c2cc3c(-c4ccc(OC5CCOCC5)c(C#N)c4)ccnc3[nH]2)cn1 [Example 236, N-(5-(4-(3-cyano-4-((tetrahydro-2H-pyran-4-yl)oxy)phenyl)-1H-pyrrolo[2,3-b]pyridin-2-yl)pyridin-2-yl)acetamide] gave an IC50 (TBK1) of 15.8 nM and an IC50 (IKKε) of 7.91 nM.

N#Cc1cccc(-c2ccnc3[nH]c(-c4ccc(N5CCOCC5)cc4)cc23)c1 [Example 79, 3-(2-(4-morpholinophenyl)-1H-pyrrolo[2,3-b]pyridin-4-yl)benzonitrile] gave an IC50 (TBK1) of 28.2 nM and an IC50 (IKKε) greater than 1000 nM.

In the case of CS(=O)(=O)N1CCN(c2ccc(-c3cc4c(-c5ccc(OC6CCOCC6)c(C#N)c5)ccnc4[nH]3)cc2)CC1 [Example 55, 5-(2-(4-(4-(methylsulfonyl)piperazin-1-yl)phenyl)-1H-pyrrolo[2,3-b]pyridin-4-yl)-2-((tetrahydro-2H-pyran-4-yl)oxy)benzonitrile], the IC50 (TBK1) is reported as 2.84 nM and the IC50 (IKKε) is reported as greater than 1000 nM.

With N#Cc1cc(-c2ccnc3[nH]c(-c4ccc(N5CCOCC5)nc4)cc23)ccc1OC1CCOCC1 [Example 81, 5-(2-(6-morpholinopyridin-3-yl)-1H-pyrrolo[2,3-b]pyridin-4-yl)-2-((tetrahydro-2H-pyran-4-yl)oxy)benzonitrile] the IC50 (TBK1) was 4.1 nM and the IC50 (IKKε) was 9.9 nM.

N#Cc1cc(-c2ncnc3[nH]c(-c4ccc(N5CCOCC5)nc4)cc23)ccc1OC1CCOCC1 [Example 155, 5-(6-(6-morpholinopyridin-3-yl)-7H-pyrrolo[2,3-d]pyrimidin-4-yl)-2-((tetrahydro-2H-pyran-4-yl)oxy)benzonitrile] showed an IC50 (TBK1) of 4.39 nM.

Molecule N#Cc1cc(-c2ccnc3[nH]c(C#CC4CCOCC4)cc23)ccc1OC1CCOCC1 [Example 35, 5-(2-((tetrahydro-2H-pyran-4-yl)ethynyl)-1H-pyrrolo[2,3-b]pyridin-4-yl)-2-((tetrahydro-2H-pyran-4-yl)oxy)benzonitrile] has an IC50 (TBK1) of 52.8 nM.

For N#Cc1cc(-c2ncnc3[nH]ccc23)ccc1OC1CCOCC1 [Example 108, 5-(7H-pyrrolo[2,3-d]pyrimidin-4-yl)-2-((tetrahydro-2H-pyran-4-yl)oxy)benzonitrile], the IC50 (IKKε) was 2230 nM.

N#Cc1cc(-c2ncnc3[nH]c(-c4ccc(N5CCN(CC(F)F)CC5)cc4)cc23)ccc1OC1CCN(C(=O)CO)CC1 [Example 264, 5-(6-(4-(4-(2,2-difluoroethyl)piperazin-1-yl)phenyl)-7H-pyrrolo[2,3-d]pyrimidin-4-yl)-2-((1-(2-hydroxyacetyl)piperidin-4-yl)oxy)benzonitrile] was tested, and the IC50 (TBK1) was 0.91 nM.

With N#Cc1cc(-c2cc3c(-c4ccc(OC5CCOCC5)c(C#N)c4)ncnc3[nH]2)ccc1OC1CCOCC1 [Example 223, 5,5′-(7H-pyrrolo[2,3-d]pyrimidine-4,6-diyl)bis(2-((tetrahydro-2H-pyran-4-yl)oxy)benzonitrile)] the IC50 (TBK1) was 2.84 nM.

Molecule COc1cc(-c2cc3c(-c4ccc(OC5CCOCC5)c(C#N)c4)ncnc3[nH]2)ccc1N1CCOCC1 [Example 136, 5-(6-(3-methoxy-4-morpholinophenyl)-7H-pyrrolo[2,3-d]pyrimidin-4-yl)-2-((tetrahydro-2H-pyran-4-yl)oxy)benzonitrile] has an IC50 (TBK1) of 1 nM.

With Cc1ncc(-c2nc3c(-c4ccc(OC5CCOCC5)c(C#N)c4)ncnc3[nH]2)s1 [Example 231, 5-(8-(2-methylthiazol-5-yl)-9H-purin-6-yl)-2-((tetrahydro-2H-pyran-4-yl)oxy)benzonitrile] the IC50 (TBK1) was 52.8 nM.

In the case of N#Cc1cc(-c2ncnc3[nH]c(C4=CCC5(CC4)OCCO5)cc23)ccc1OC1CCN(C(=O)CO)CC1 [Example 175, 5-(6-(1,4-dioxaspiro[4.5]dec-7-en-8-yl)-7H-pyrrolo[2,3-d]pyrimidin-4-yl)-2-((1-(2-hydroxyacetyl)piperidin-4-yl)oxy)benzonitrile], the IC50 (IKKε) is reported as 5.84 nM.

For N#CCC(=O)N1CCN(c2ccc(-c3cc4c(-c5ccc(OC6CCOCC6)c(C#N)c5)ccnc4[nH]3)cc2)CC1 [Example 57, 5-(2-(4-(4-(2-cyanoacetyl)piperazin-1-yl)phenyl)-1H-pyrrolo[2,3-b]pyridin-4-yl)-2-((tetrahydro-2H-pyran-4-yl)oxy)benzonitrile], the IC50 (IKKε) was 2.98 nM.

Molecule COC(=O)c1ccc(-c2cc3c(-c4ccc(OC5CCOCC5)c(C#N)c4)ccnc3[nH]2)cc1 [Example 238, Methyl 4-(4-(3-cyano-4-((tetrahydro-2H-pyran-4-yl)oxy)phenyl)-1H-pyrrolo[2,3-b]pyridin-2-yl)benzoate] has an IC50 (IKKε) of 1000 nM.

In the case of CC(C)(O)c1ccc(-c2cc3c(-c4ccc(OC5CCN(C(=O)CO)CC5)c(C#N)c4)ncnc3[nH]2)cn1 [Example 132, 2-((1-(2-hydroxyacetyl)piperidin-4-yl)oxy)-5-(6-(6-(2-hydroxypropan-2-yl)pyridin-3-yl)-7H-pyrrolo[2,3-d]pyrimidin-4-yl)benzonitrile], the IC50 (TBK1) is reported as 3.26 nM.

For N#Cc1cc(-c2ccnc3[nH]c(-c4ccc(N5CC6(COC6)C5)cc4)cc23)ccc1OC1CCOCC1 [Example 46, 5-(2-(4-(2-oxa-6-azaspiro[3.3]heptan-6-yl)phenyl)-1H-pyrrolo[2,3-b]pyridin-4-yl)-2-((tetrahydro-2H-pyran-4-yl)oxy)benzonitrile], the IC50 (IKKε) was 13 nM.
